For 78 compounds, RP-LC retention time results are on record in the METLIN SMRT retention time set (Domingo-Almenara et al. 2019).

The data set is described as follows: gradient 5% acetonitrile 3 min, to 50% in 2 min, to 85% in 15 min, held 3 min, 100 µL/min. Conditions: column: Zorbax Extend-C18 2.1 x 50 mm; eluents: water / acetonitrile, 0.1% formic acid. In a few lines: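 Over 3 months, pure standards in mixtures of ~100 molecules were run by HPLC coupled to a quadrupole time-of-flight mass spectrometer in positive and negative ionization mode. The column was a Zorbax Extend-C18 (2.1 × 50 mm, 1.8 μm) at 100 μL/min, eluted with water and acetonitrile each holding 0.1% formic acid, with 40 μL dead and 900 μL dwell volumes. Retention time was determined from adduct peaks chosen by software and checked manually.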
In the case of `CCOC(=O)c1cccc(Nc2nc(C(=O)OCC)nc3ccccc23)c1`, the RP-LC retention time came to 870 s.

Regarding `COc1ccc(NC(=O)c2cccc(F)c2)c2ccccc12`, the RP-LC retention time turned out to be 852 s. Compound `Cc1cccc2nc(-c3ccc(O)cc3)c(Nc3ccc4c(c3)OCCO4)n12` yielded an RP-LC retention time of 646 s. To `O=C(Cn1nc(N2CCCC2)c2ccccc2c1=O)Nc1cccc(Cl)c1` belongs 989 s. `O=C(NCc1cccc(C(F)(F)F)c1)C1CCN(c2cc(N3CCOCC3)ncn2)CC1` came in with an RP-LC retention time of 672 s.

Turning to `COc1cc2c(cc1CNC(=O)COc1ccc(Br)cc1)OCCCO2`, the RP-LC retention time is 957 s. In turn, `O=S(=O)(Cc1ccccc1F)N1CCCC(Cn2c(C3CC3)nc3cccnc32)C1` (stereo not drawn) registered an RP-LC retention time of 732 s.

Compound `Cn1ncc2c(N3CCSCC3)nc(C(=O)Nc3cccc(OC(F)(F)F)c3)nc21` showed an RP-LC retention time of 1010 s.

For `CN(Cc1ccccc1)C(=O)Cn1c(=O)c2cnc(-c3ccc(Cl)cc3)nc2n(C)c1=O`, the RP-LC retention time is 1120 s. Turning to `Cc1oc(-c2cccc(Cl)c2)nc1CN(c1ccccc1)S(=O)(=O)c1cccs1`, the RP-LC retention time came out at 1260 s.

Compound `CCOc1ccc(-c2nc(-c3ccc4nnn(CC)c4c3)no2)cc1` showed an RP-LC retention time of 1140 s. To `COCCCN1C(=O)CSc2c(c3ccccc3n2C)C1C(=O)NCCCOC(C)C` (stereo not drawn) belongs 825 s; to `CC(C)[C@H]1C(=O)O[C@@H]2CCN3CC=C(COC(=O)[C@](C)(O)[C@]1(C)O)[C@H]23`, 584 s; to `COC(=O)c1cccc(Nc2c(-c3ccc(Cl)cc3)nc3cnccn23)c1`, 905 s. To `O=C1C(c2ccncc2)N(CCCc2ccccc2)C(=O)CN1c1ccccc1` (stereo not drawn) belongs 719 s. To `Cc1ccc(Nc2nc(C(=O)NC(C)Cc3ccco3)nc3ccccc23)cc1` (stereo not drawn) belongs 873 s; to `CCCN(Cc1ccc(OC)c(OC)c1)Cc1cc(=O)n2ccccc2n1`, 592 s. The compound `COCCC(=O)NC1CCN(C2=NS(=O)(=O)C(c3ccc(C(C)C)cc3)=C2C)CC1` returned an RP-LC retention time of 813 s. For `CCOc1ccc(N2CCCCn3c2nc2c3c(=O)n(CC)c(=O)n2C)cc1`, the RP-LC retention time turned out to be 902 s. Take `COc1ccccc1-c1nc2nccc(-c3ccc4c(c3)OCCCO4)n2n1`: the RP-LC retention time came to 888 s. The value for `Cc1ccc(-c2nnc(SCc3noc(CCC(=O)Nc4nccs4)n3)o2)cc1` was 816 s. The compound `O=C(Nc1ccc2c(c1)OCCO2)N1CCN(Cc2ccccc2)c2ncccc21` displayed an RP-LC retention time of 731 s. To `Nc1nc(SCC(=O)Nc2cccc(-c3nc4ccccc4s3)c2)n[nH]1` belongs 667 s; to `Cc1ccc(Cn2c(=O)c(N3CCCC(C(=O)NCCc4ccco4)C3)nc3ccccc32)cc1` (stereo not drawn), 1090 s.

`O=C(NCc1ccccc1Cl)C1CCN(c2cnc3nccnc3c2)CC1` came in with an RP-LC retention time of 769 s. In turn, `Cc1ccc(NC(=O)Cc2c(C)nn(-c3nc(-c4ccc(C)cc4)cs3)c2C)cc1` showed an RP-LC retention time of 1270 s. Turning to `CCc1ccc(NC(=O)C2CCCN(c3nccnc3Sc3ccc(C)cc3)C2)cc1` (stereo not drawn), the RP-LC retention time worked out at 1290 s. To `Cc1noc(Cn2cnc3c4ccccc4n(CC(=O)NC4CCCC4)c3c2=O)n1` belongs 744 s; to `COc1ccc(OCc2nc(-c3ccc(NS(=O)(=O)c4cccs4)cc3)no2)cc1`, 1040 s. To `CCn1cnc(S(=O)(=O)N2CCC(C(=O)NCCc3ccc(OC)c(OC)c3)CC2)c1` belongs 661 s; to `CC1(C(=O)NCc2ccccc2)CCCN(C(=O)NCc2ccc(F)cc2)C1` (stereo not drawn), 831 s; to `CCc1cccc(C)c1NC(=O)C1Cc2cc(S(=O)(=O)N3CCCCC3)ccc2N1C(C)=O` (stereo not drawn), 900 s. The compound `Cc1nnsc1C(=O)Nc1ccc2c(c1)OCC(C)(C)C(=O)N2C` showed an RP-LC retention time of 605 s. To `CC(C)c1ccc(CNC(=O)CN2CCN(Cc3ccc(F)cc3)C2=O)cc1` belongs 933 s; to `CCN(Cc1ccccc1)C(=O)C1CCN(S(=O)(=O)c2ccc3c(c2)sc(=O)n3CC)CC1`, 953 s; to `Cc1ccc(-c2noc(C3CCCN3C(=O)c3ccc(CS(=O)(=O)c4ccccc4)cc3)n2)cc1` (stereo not drawn), 1010 s. Turning to `CN1C(=O)Cc2cc(C(=O)NC3CCCCC3)ccc21`, the RP-LC retention time amounted to 692 s. Regarding `Cc1nnc(NC(=O)CSc2nnc(-c3ccccc3F)o2)s1`, the RP-LC retention time turned out to be 700 s.

Turning to `CCCCN1C(=O)C(NC(=O)c2ccccc2OC)(C(F)(F)F)C(C(C)=O)=C1C` (stereo not drawn), the RP-LC retention time was 976 s. To `CC(C)(C)NC(=O)Cc1cccn1-c1ccc(F)cc1` belongs 925 s; to `Cc1noc2ncnc(N3CCCC(C(=O)N4CCN(C5CCCCC5)CC4)C3)c12` (stereo not drawn), 594 s; to `Fc1ccc(CN2CCC(Cc3nc(-c4cccnc4)n[nH]3)C2)c(F)c1` (stereo not drawn), 564 s. Consider `CN1c2cc(F)ccc2C(=O)NC12CCN(C(=O)Nc1ccc(F)cc1F)CC2`, for which the RP-LC retention time is 752 s. The value for `CCc1ccc(-c2ccc(-n3nc(C)c(S(=O)(=O)N4CCC(C)CC4)c3C)nn2)cc1` was 1350 s.

Turning to `COc1ncc(C(=O)Nc2ccc(Cl)cc2)c(C)n1`, the RP-LC retention time was determined as 786 s. The value for `COCCn1cc2c3c(cccc31)CN(C(=O)Cc1c(F)cccc1Cl)CC2` was 967 s. Consider `CCn1cc(-c2ccc(Cl)cc2)cc1C(=O)NCc1cccnc1`, for which the RP-LC retention time turned out to be 738 s. Take `CC1CCN(S(=O)(=O)c2ccc3nn(CCOc4ccc(F)cc4)c(=O)n3c2)CC1`: the RP-LC retention time amounted to 1340 s. The compound `CN(C)S(=O)(=O)c1cccc(-c2nnc(-c3ccccc3Br)o2)c1` returned an RP-LC retention time of 947 s. The value for `CC(C)Cn1cc(CCNC(=O)c2ccc(F)cc2F)c2cccnc21` was 834 s; that for `O=C(NCc1cc(F)cc(F)c1)c1ccnc(N2CCNC(c3ccccc3)C2)c1` (stereo not drawn) was 661 s; that for `COCCc1noc(-c2nc(-c3ccccc3F)no2)n1` was 926 s. The value for `Cc1[nH]c(C(=O)N2CCC(CC(=O)NCCCN3CCN(c4ccc(F)cc4)CC3)CC2)c(C)c1C` was 675 s; that for `Cc1nnc(CNC(=O)C(=O)Nc2ccc3c(c2)OCCO3)o1` was 615 s. To `COc1ccc(CNC(=O)c2cc(NC(C)=O)cc3nc(C)ccc23)cc1OC` belongs 575 s; to `COCc1nc(-c2ccc(OC3CN(C(=O)NC(C)C)C3)cc2)no1`, 773 s; to `O=C(CCc1nnc2ccc(N3CCC4(CC3)OCCO4)nn12)N1CCN(c2ccccn2)CC1`, 581 s.

`COc1ccc(NC(=O)C2CCN(c3cc(N4CCCC4)ncn3)CC2)cc1Cl` returned an RP-LC retention time of 677 s. As for `Cc1cccc(N2CCN(Cc3nc4nc(C)cc(N(C)C)n4n3)CC2)c1`, the RP-LC retention time is 634 s.

The compound `CC1=C(c2ccc(C)cc2)S(=O)(=O)N=C1N1CCC(NC(=O)C2CCCO2)CC1` (stereo not drawn) displayed an RP-LC retention time of 902 s.

In the case of `COc1cc(-c2nc3ccccn3c2Nc2ccc3c(c2)OCCO3)ccc1O`, the RP-LC retention time turned out to be 629 s.

`Cc1cccc2nc(-c3cccc(Br)c3)c(Nc3ccc4c(c3)OCCO4)n12`: the RP-LC retention time came out at 739 s. In turn, `Cc1c(-c2ccnc(N3CCN(Cc4ccccc4)CC3)n2)cnc2ncnn12` had an RP-LC retention time of 588 s. For the compound `O=C(NCCc1ccccc1)Nc1nccn(-c2ccc3c(c2)CCC3)c1=O`, the RP-LC retention time was 1060 s. The value for `Cc1ccc(CNS(=O)(=O)c2cc(-c3[nH]ncc3C(=O)N3CCCC3)oc2C)cc1` was 725 s; that for `CCn1c(C2CCN(C(=O)c3ccoc3)C2)nc2cccnc21` (stereo not drawn) was 604 s; that for `CCc1ccc(CNC(=O)c2nc3cccnc3n(CC)c2=O)cc1` was 915 s. To `CN(C)c1nc(Nc2ccc(F)cc2)c2cnn(-c3ccccc3)c2n1` belongs 1310 s; to `CCOc1ccc(S(=O)(=O)N2CCC(c3noc(-c4ccc(C)cc4)n3)CC2)cc1`, 1240 s; to `CN(CCc1noc(-c2ccccc2)n1)C(=O)Nc1ccc(F)c(Cl)c1`, 954 s. To `Cc1ccc(C(=O)N2CCC(c3nc(C4CC4)n[nH]3)CC2)s1` belongs 600 s; to `CN1CCN(c2c(C(=O)c3ccccc3)cnc3cc4c(cc23)OCO4)CC1`, 560 s. Compound `Cc1cccc2nnc(N3CCN(C(=O)c4ccc(F)c(F)c4)CC3)n12` came in with an RP-LC retention time of 652 s.

In turn, `CCn1cc(-c2nc(CC(=O)Nc3ccccc3Cl)cs2)c2cccnc21` had an RP-LC retention time of 1050 s. `COc1ccc(CCN2C(=O)C(NC(C)=O)(C(F)(F)F)C3=C2CC(C)(C)CC3=O)cc1OC` (stereo not drawn) returned an RP-LC retention time of 760 s. Compound `CCCN1C(=O)C(C)(C(=O)NCc2ccc(C)cc2)Oc2cccnc21` (stereo not drawn) displayed an RP-LC retention time of 616 s. The value for `CC(C)C(=O)N1CCc2cc(-c3ccc(C(=O)N4CCN(C(=O)c5ccco5)CC4)cc3)ccc21` was 830 s; that for `Cc1nc(-c2ccccc2F)sc1C(=O)NC1CC1` was 827 s.
